In data set [1] the target is T1, Integrin alpha-V/beta-6 (Homo sapiens, UniProt P06756+P18564). Description: Binding affinity to alphav/beta6 integrin in human A375Pbeta6 cells at 100 nM after 15 mins by flow cytometric analysis relative to biotinylated A20FMDV2. It is filed as cell-based.
The target of data set [2] is T1, Integrin alpha-V/beta-6. Description: Binding affinity to alphav/beta6 integrin in human A375Pbeta6 cells assessed as drug internalization at 100 nM after 15 mins by flow cytometric analysis relative to biotinylated A20FMDV2. It is filed as ADME, cell-based. Particulars: 0.25 h, 0.1 µM. For orientation: A flow cytometer gives signals particle by particle.
Target sequence in this assay (P06756 31-889 limits assumed): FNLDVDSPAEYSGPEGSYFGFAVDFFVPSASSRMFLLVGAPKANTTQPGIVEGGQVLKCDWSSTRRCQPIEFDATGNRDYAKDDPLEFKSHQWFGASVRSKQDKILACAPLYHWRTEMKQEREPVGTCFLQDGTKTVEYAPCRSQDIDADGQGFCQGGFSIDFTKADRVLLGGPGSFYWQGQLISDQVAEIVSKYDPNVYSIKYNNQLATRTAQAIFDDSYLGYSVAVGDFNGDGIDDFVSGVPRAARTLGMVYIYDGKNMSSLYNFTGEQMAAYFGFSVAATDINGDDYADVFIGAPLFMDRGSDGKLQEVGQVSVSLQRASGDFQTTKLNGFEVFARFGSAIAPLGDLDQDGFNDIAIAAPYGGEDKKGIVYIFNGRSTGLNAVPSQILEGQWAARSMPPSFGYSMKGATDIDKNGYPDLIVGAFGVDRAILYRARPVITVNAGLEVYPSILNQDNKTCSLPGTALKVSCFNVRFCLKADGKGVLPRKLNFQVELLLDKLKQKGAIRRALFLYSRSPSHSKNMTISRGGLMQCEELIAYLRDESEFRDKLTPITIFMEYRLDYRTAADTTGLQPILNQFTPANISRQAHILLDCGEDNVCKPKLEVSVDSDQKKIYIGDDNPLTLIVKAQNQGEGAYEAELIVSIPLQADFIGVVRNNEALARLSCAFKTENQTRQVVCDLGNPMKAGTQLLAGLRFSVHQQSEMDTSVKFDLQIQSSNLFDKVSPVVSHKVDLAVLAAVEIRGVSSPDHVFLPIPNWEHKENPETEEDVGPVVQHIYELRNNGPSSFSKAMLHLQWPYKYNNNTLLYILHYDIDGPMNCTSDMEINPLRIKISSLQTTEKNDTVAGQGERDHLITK
Target sequence in this assay (P06756 891-1048 limits assumed): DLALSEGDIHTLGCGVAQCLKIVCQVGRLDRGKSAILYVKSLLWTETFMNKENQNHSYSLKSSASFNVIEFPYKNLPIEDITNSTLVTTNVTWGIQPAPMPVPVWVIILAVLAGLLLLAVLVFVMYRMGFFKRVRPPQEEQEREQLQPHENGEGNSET
Target sequence in this assay (P18564 22-788 limits assumed): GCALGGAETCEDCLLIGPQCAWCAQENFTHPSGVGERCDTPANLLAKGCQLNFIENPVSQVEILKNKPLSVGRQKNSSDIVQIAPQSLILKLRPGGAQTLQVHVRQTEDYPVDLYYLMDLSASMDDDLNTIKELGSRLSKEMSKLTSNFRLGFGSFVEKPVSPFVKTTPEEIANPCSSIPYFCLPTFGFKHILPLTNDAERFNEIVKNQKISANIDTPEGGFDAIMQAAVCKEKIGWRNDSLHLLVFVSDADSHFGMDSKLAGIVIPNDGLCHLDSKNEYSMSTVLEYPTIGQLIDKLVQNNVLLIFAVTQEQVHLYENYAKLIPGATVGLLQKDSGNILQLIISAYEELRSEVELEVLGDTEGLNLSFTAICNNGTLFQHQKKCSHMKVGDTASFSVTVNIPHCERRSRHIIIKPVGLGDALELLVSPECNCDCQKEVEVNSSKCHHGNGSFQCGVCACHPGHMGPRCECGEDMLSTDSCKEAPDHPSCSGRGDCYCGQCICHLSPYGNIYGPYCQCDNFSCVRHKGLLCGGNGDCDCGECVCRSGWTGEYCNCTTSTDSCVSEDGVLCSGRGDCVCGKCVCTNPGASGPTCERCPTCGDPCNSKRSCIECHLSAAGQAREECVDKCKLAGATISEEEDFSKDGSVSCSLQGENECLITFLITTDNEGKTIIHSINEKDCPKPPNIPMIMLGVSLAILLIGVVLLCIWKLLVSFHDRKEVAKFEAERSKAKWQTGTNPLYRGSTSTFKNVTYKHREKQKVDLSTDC
Data set [3] is described as follows: Drug uptake in human A375PPuro cells at 1000 nM after 15 mins by flow cytometric analysis. It is filed as ADME, cell-based. Conditions: 0.25 h, 1 µM.
Data set [4] concerns the target Integrin alpha-V/beta-5 (Homo sapiens) (UniProt P06756+P18084). Description: Binding affinity alphav/beta5 integrin in human A375PPuro cells at 1000 nM after 15 mins by flow cytometric analysis. It is filed as cell-based.
Data set [5] has as its target Integrin alpha-V/beta-8 (Homo sapiens) (UniProt P06756+P26012). Description: Binding affinity alphav/beta8 integrin in human A375PPuro cells at 1000 nM after 15 mins by flow cytometric analysis. It is filed as cell-based.
For data set [6], the system named is Integrin alpha-V/beta-1 (Homo sapiens). Kind of data set: Binding affinity alphav/beta1 integrin in human A375PPuro cells at 1000 nM after 15 mins by flow cytometric analysis.

The structures appear in SMILES notation. Activity calls are given as the source filed them. The calls are words filed in the database; no cut-off is given here.

In the case of `CC(C)C[C@H](NC(=O)[C@H](CC(=O)O)NC(=O)CNC(=O)[C@H](CCCNC(=N)N)NC(=O)[C@H](CC(C)C)NC(=O)[C@H](CC(N)=O)NC(=O)[C@@H]1CCCN1C(=O)[C@@H](NC(=O)[C@H](CCCCNC(=O)CCCC[C@@H]1SC[C@@H]2NC(=O)N[C@@H]21)NC(=O)[C@H](CC(N)=O)NC(=O)CNC(=O)CN(CCN(CCN(CC(=O)O)CC(=O)O)CC(=O)O)CC(=O)O)C(C)C)C(=O)N[C@@H](CCC(N)=O)C(=O)N[C@H](C(=O)N[C@@H](CC(C)C)C(=O)N[C@@H](C)C(=O)N[C@@H](CCC(N)=O)C(=O)N[C@@H](CCCCN)C(=O)N[C@H](C(=O)N[C@@H](C)C(=O)N[C@@H](CCCNC(=N)N)C(=O)N[C@H](C(=O)O)[C@@H](C)O)C(C)C)C(C)C`, the fold change (FC) on Integrin alpha-V/beta-6 [1] came out at 1.28; on Integrin alpha-V/beta-6 [2], 0.97. For the same compound, in data set [3], the Drug uptake result is “Not Active”.
In the case of `CCCC[C@H](NC(=O)[C@@H](NC(=O)[C@H](CCC(N)=O)NC(=O)[C@H](CC(C)C)NC(=O)[C@H](CC(=O)O)NC(=O)CNC(=O)[C@H](CCCNC(=N)N)NC(=O)[C@H](CC(C)C)NC(=O)[C@H](CC(N)=O)NC(=O)[C@@H]1CCCN1C(=O)[C@@H](NC(=O)[C@H](CCCCNC(=O)CCCC[C@@H]1SC[C@@H]2NC(=O)N[C@@H]21)NC(=O)[C@@H](N)CC(N)=O)C(C)C)C(C)C)C(=O)N[C@@H](C)C(=O)N[C@@H](CCC(N)=O)C(=O)N[C@@H](CCCCN)C(=O)N[C@H](C(=O)N[C@@H](C)C(=O)N[C@@H](CCCNC(=N)N)C(=O)N[C@H](C(=O)O)[C@@H](C)O)C(C)C`, the values for the fold change (FC) on Integrin alpha-V/beta-6 [1] and at Integrin alpha-V/beta-6 [2] were 1.16 and 1.15, respectively. Besides, in data set [3], the Drug uptake entry was “Not Active”.
With `CC(C)C[C@H](NC(=O)[C@H](CC(=O)O)NC(=O)CNC(=O)[C@H](CCCNC(=N)N)NC(=O)[C@H](CC(C)C)NC(=O)[C@H](CC(N)=O)NC(=O)[C@@H]1CCCN1C(=O)[C@@H](NC(=O)[C@H](CCCCNC(=O)CCCC[C@@H]1SC[C@@H]2NC(=O)N[C@@H]21)NC(=O)[C@H](CC(N)=O)NC(=O)CN1CCN(CC(=O)O)CCN(CC(=O)O)CCN(CC(=O)O)CC1)C(C)C)C(=O)N[C@@H](CCC(N)=O)C(=O)N[C@H](C(=O)N[C@@H](CC(C)C)C(=O)N[C@@H](C)C(=O)N[C@@H](CCC(N)=O)C(=O)N[C@@H](CCCCN)C(=O)N[C@H](C(=O)N[C@@H](C)C(=O)N[C@@H](CCCNC(=N)N)C(=O)N[C@H](C(=O)O)[C@@H](C)O)C(C)C)C(C)C`, the Drug uptake result in data set [3] was “Not Active”. In addition, the outcome in data set [4], in data set [5] and in data set [6] was inactive.
For the compound `CCC(CC)[C@H](NC(=O)[C@@H](NC(=O)[C@H](CCC(N)=O)NC(=O)[C@H](CC(C)C)NC(=O)[C@H](CC(=O)O)NC(=O)CNC(=O)[C@H](CCCNC(=N)N)NC(=O)[C@H](CC(C)C)NC(=O)[C@H](CC(N)=O)NC(=O)[C@@H]1CCCN1C(=O)[C@@H](NC(=O)[C@H](CCCCNC(=O)CCCC[C@@H]1SC[C@@H]2NC(=O)N[C@@H]21)NC(=O)[C@@H](N)CC(N)=O)C(C)C)C(C)C)C(=O)N[C@@H](C)C(=O)N[C@@H](CCC(N)=O)C(=O)N[C@@H](CCCCN)C(=O)N[C@H](C(=O)N[C@@H](C)C(=O)N[C@@H](CCCNC(=N)N)C(=O)N[C@H](C(=O)O)[C@@H](C)O)C(C)C`, the fold change (FC) on Integrin alpha-V/beta-6 [1] came to 0.7; at Integrin alpha-V/beta-6 [2], 0.52. The Drug uptake result in data set [3] was “Not Active”.
Take `CC(C)C[C@H](NC(=O)[C@H](CC(=O)O)NC(=O)CNC(=O)[C@H](CCCNC(=N)N)NC(=O)[C@H](CC(C)C)NC(=O)[C@H](CC(N)=O)NC(=O)[C@@H]1CCCN1C(=O)[C@@H](NC(=O)[C@H](CCCCNC(=O)CCCC[C@@H]1SC[C@@H]2NC(=O)N[C@@H]21)NC(=O)[C@@H](N)CC(N)=O)C(C)C)C(=O)N[C@@H](CCC(N)=O)C(=O)N[C@H](C(=O)NC(C)(C)C(=O)N[C@@H](C)C(=O)N[C@@H](CCC(N)=O)C(=O)N[C@@H](CCCCN)C(=O)N[C@H](C(=O)N[C@@H](C)C(=O)N[C@@H](CCCNC(=N)N)C(=O)N[C@H](C(=O)O)[C@@H](C)O)C(C)C)C(C)C`: the fold change (FC) was 1.07 at Integrin alpha-V/beta-6 [1] and 1.11 on Integrin alpha-V/beta-6 [2]. The Drug uptake entry in data set [3] is recorded as “Not Active”.
As to `CC(C)C[C@H](NC(=O)[C@H](CC(=O)O)NC(=O)CNC(=O)[C@H](CCCNC(=N)N)NC(=O)[C@H](CC(C)C)NC(=O)[C@H](CC(N)=O)NC(=O)[C@@H]1CCCN1C(=O)[C@@H](NC(=O)[C@H](CCCCNC(=O)CCCC[C@@H]1SC[C@@H]2NC(=O)N[C@@H]21)NC(=O)[C@@H](N)CC(N)=O)C(C)C)C(=O)N[C@@H](CCC(N)=O)C(=O)N[C@H](C(=O)N[C@H](C(=O)N[C@@H](C)C(=O)N[C@@H](CCC(N)=O)C(=O)N[C@@H](CCCCN)C(=O)N[C@H](C(=O)N[C@@H](C)C(=O)N[C@@H](CCCNC(=N)N)C(=O)N[C@H](C(=O)O)[C@@H](C)O)C(C)C)C12CC3CC(CC(C3)C1)C2)C(C)C`, the fold change (FC) on Integrin alpha-V/beta-6 [1] was found to be 0.51; at Integrin alpha-V/beta-6 [2], 1.07. Further, the Drug uptake entry in data set [3] is given as “Not Active”.
Consider `CC(C)C[C@H](NC(=O)[C@H](CC(=O)O)NC(=O)CNC(=O)[C@H](CCCNC(=N)N)NC(=O)[C@H](CC(C)C)NC(=O)[C@H](CC(N)=O)NC(=O)[C@@H]1CCCN1C(=O)[C@@H](NC(=O)[C@H](CCCCNC(=O)CCCC[C@@H]1SC[C@@H]2NC(=O)N[C@@H]21)NC(=O)[C@@H](N)CC(N)=O)C(C)C)C(=O)N[C@@H](CCC(N)=O)C(=O)N[C@H](C(=O)N[C@@H](CC(C)C)C(=O)N[C@@H](C)C(=O)N[C@@H](CCC(N)=O)C(=O)N(C)[C@@H](CCCCN)C(=O)N[C@H](C(=O)N[C@@H](C)C(=O)N[C@@H](CCCNC(=N)N)C(=O)N[C@H](C(=O)O)[C@@H](C)O)C(C)C)C(C)C`, for which the fold change (FC) at Integrin alpha-V/beta-6 [1] turned out to be 0.37; at Integrin alpha-V/beta-6 [2], 0.89. Moreover, the Drug uptake entry in data set [3] was “Not Active”.

For the origin of these results see ChEMBL document CHEMBL4138084, “Structure-activity relationship study of the tumour-targeting peptide A20FMDV2 via modification of Lys16, Leu13, and N- and/or C-terminal functionality” (Eur J Med Chem, 2017).
